In patent US4368194A, “Pharmacologically active amine boranes” (The United States of America as represented by the …, priority 1981, dated 1983):

Tests used:
[1] = system: carrageenan induced edema in mouse foot pads; assay: Anti-inflammatory screen (carrageenan induced foot edema); format: in vivo, mice
In short: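 Male CF1 mice (~30 g) given 10 mg/kg i.p. in 0.05% polysorbate 80-water, 3 hr and 30 min before 0.05 ml 2% carrageenan injected into the right hind plantar surface, with saline in the left foot as baseline. Feet excised at the ankle after 3 hr and weight increase measured.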

[2] = system: CF1 male mice; assay: Writhing reflex (acetic acid); format: in vivo
In short: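 CF1 male mice were dosed with test drug at 20 mg/kg i.p. 20 min before 0.5 ml of 0.6% acetic acid. Abdominal stretches with hind-limb extension were counted over 10 min, starting 5 min after acid.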

[3] = system: Male Sprague Dawley rats; assay: Chronic adjuvant arthritic screen; format: in vivo
Method: Male Sprague Dawley rats (about 160 g) were injected at the base of the tail with 0.2 ml of solution of killed and dried Mycobacterium butyricum and digitonin in mineral oil (see Waksman et al., J. Immunol., 85, 403 1960). Test drugs were administered intraperitoneally commencing on day 3 through day 20 at 2.5 mg/kg/day. Animals were sacrificed on day 21, and the feet were excised and weighed.

[4] = system: Sprague Dawley rats; assay: Anti-pyretic screen; format: in vivo
Method: Sprague Dawley rats (about 200 g) were administered 2 ml of a 44% solution of Baker's yeast subcutaneously (see Roszkowski et al., supra) 18 hr prior to the injection of drugs at 2.5 or 5 mg/kg intraperitoneally resulting in an elevation of 3.46° F. Alternatively, rats were administered 0.25 mg killed and dried Mycobacterium butyricum (Difco) (see Randall et al., Arch int Pharmacodyn et De Ther, 220, 94 1976) subcutaneously prior to the administration of drugs. Rectal temperatures were taken immediately prior to and 2, 4, and 6 hr after drug administration.

[5] = system: Sprague Dawley rats; assay: Red and white blood cell counts after 3 weeks dosing; format: in vivo; conditions: dosing for three weeks intraperitoneally, rats
Excerpt: Hematocrits were also obtained.

[6] = system: Acid phosphatase; assay: Lysosomal free acid phosphatase activity, liver homogenate; format: biochemical, rats; conditions: 5 μmoles, in vitro; 20 min
In short: (§1)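 Percent free enzyme activity was calculated against total activity released by 0.02% detergent. Drug (5 μmoles, 1% CMC) was incubated 20 min with rat liver homogenate (sucrose/EDTA, pH 7.2) at pH 5.0 acetate. Substrates: β-glycerol phosphate for phosphatase (phosphate read-out), azocasein for cathepsin (366 nm).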

[7] = system: Cathepsin; assay: Lysosomal free cathepsin activity, liver homogenate; format: biochemical, rats; conditions: 5 μmoles
In short: as §1

[8] = system: Acid phosphatase; assay: Lysosomal free acid phosphatase activity, PMNs; format: cell-based; conditions: 5 μmoles
In short: (§2)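 Glycogen-elicited peritoneal PMNs, or liver homogenate, incubated with 5 μmoles test drug in 1% CMC for 60 or 20 min at pH 5.0. Acid phosphatase: 0.1 M β-glycerol phosphate, inorganic phosphate read; cathepsin: 2% azocasein, acid-soluble peptides at 366 nm. Free activity expressed as percent of detergent-released total.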

[9] = system: Cathepsin; assay: Lysosomal free cathepsin activity, PMNs; format: cell-based; conditions: 5 μmoles, in vitro; 60 min
In short: as §2

[10] = system: cAMP levels in PMNs; assay: Cyclic-3',5'-adenosine monophosphate levels (cAMP) in PMNs; format: cell-based; conditions: 1 h
In short: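 Glycogen-elicited peritoneal neutrophils in MEM with 10% FCS, pH 7.4, exposed to test drugs at 5μ moles for 1 hr at 37° C; stopped with 6% trichloroacetic acid. cAMP measured by radioimmunoassay with 3H-cAMP tracer, expressed as p mole/10^7 PMNs.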

[11] = biological target: T1, prostaglandin synthetase from beef seminal vesicle (Bos taurus, UniProt O62664); assay: Prostaglandin synthetase activity; format: biochemical; conditions: 10^-6 M
T1 construct: purchased; host or cells: beef seminal vesicle
T1 sequence (O62664 25-600): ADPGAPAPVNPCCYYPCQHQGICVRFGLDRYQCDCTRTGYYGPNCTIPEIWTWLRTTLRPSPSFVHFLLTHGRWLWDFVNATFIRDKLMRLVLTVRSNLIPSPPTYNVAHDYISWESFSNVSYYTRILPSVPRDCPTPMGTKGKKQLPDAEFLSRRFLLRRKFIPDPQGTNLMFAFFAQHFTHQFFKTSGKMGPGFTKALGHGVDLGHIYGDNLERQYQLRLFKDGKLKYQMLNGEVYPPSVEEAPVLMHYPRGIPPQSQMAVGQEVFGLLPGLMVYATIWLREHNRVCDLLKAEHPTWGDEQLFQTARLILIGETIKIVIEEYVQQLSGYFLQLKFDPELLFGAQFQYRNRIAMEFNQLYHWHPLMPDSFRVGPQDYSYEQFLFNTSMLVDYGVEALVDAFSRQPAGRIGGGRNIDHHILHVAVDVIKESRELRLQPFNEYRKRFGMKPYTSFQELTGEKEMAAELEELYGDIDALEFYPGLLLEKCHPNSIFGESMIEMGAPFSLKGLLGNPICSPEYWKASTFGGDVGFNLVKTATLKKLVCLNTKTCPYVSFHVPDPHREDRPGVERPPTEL
Method: After 1 hr at 37° C. the reaction was stopped with 1 N HCl and extracted with ethyl ether and evaporated. […] The plates were dried and developed in iodine vapor and with the use of prostaglandin standards the appropriate areas were scraped and counted for ^3 H content. Indometacin was used as a standard at 10^-4 M concentration. Test drugs were used at 10^-6 M.

[12] = system: liver mitochondria; assay: Oxidative phosphorylation, succinate as substrate; format: biochemical, rats; conditions: 5 μmoles
In short: (§3)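 Basal and ADP-stimulated respiration of 10% liver homogenates, with succinate (90 μmoles) or α-ketoglutarate (60 μmoles) as substrate, in sucrose/KCl/K2HPO4 medium. Test compounds at 5 μmoles in 1% CMC in 1.8 ml total. Rate given as μl O2 consumed/hr/mg wet liver weight.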

[13] = system: liver mitochondria; assay: Oxidative phosphorylation, α-ketoglutarate as substrate; format: biochemical, rats; conditions: 5 μmoles
In short: as §3

Structure (SMILES): C[N+](C)(C)[BH2-]C#N [Compound V, trimethylamine-cyanoborane]
- Anti-inflammatory Screen ([1]; 10 mg/kg × 2 intraperitoneally, mice): 42 % Control
- inhibition of the carrageenan induced edema in mouse foot pads ([1]; text summary of Table II): at least 50%
- Writhing Reflex ([2]; 20 mg/kg intraperitoneally, mice): 18 % Control
- inhibition of the writhing reflex ([2]; text summary of Table II): 80%
- inhibition in the rat induced arthritic screen ([3]; 1.25 mg/kg/day intraperitoneally): 75%
- inhibition in the rat induced arthritic screen ([3]; 5 mg/kg/day intraperitoneally): 100%
- inhibition in the rat induced arthritic screen ([3]; 10 mg/kg/day intraperitoneally): 100%
- inhibition of elevated body temperature ([4]; 5 mg/kg): no inhibition
- inhibition of elevated body temperature ([4]; 10 mg/kg): no inhibition
- alteration of the red blood or white blood cell count/cu mm [5]: no alteration
- Liver % Free Acid Phosphatase Activity, pH5 [6]: 69 ± 4 % Control
- inhibition of free proteolytic cathepsin activity of liver [7]: 100%
- Liver % Free Cathepsin Activity, pH5 ([7]; in vitro, 20 min): 0 ± 2 % Control
- inhibition of free acid phosphatase activity in PMNs [8]: 65%
- PMNs % Free Acid Phosphatase Activity, pH5 ([8]; in vitro, 60 min): 35 ± 5 % Control
- PMNs % Free Cathespin Activity, pH5 [9]: 4 ± 2 % Control
- activity at 5 µmol ([10]; pH 7.4, read-out: PMNs cAMP Level): 245%
- activation at 5 µmol ([10]; read-out: increase of cyclic adenosine monophosphate levels in PMNs): 145%
- inhibition at 1 µM ([11]; read-out: inhibition of prostaglandin synthesis): > 30%
- activity at 1 µM ([11]; 1 h, read-out: Prostaglandin Synthesis): 59 ± 6%
- Oxidative Phosphorylation Succinate State 3 ([12]; ADP stimulated respiration): 51 ± 20 % Control
- Oxidative Phosphorylation Succinate State 4 ([12]; basal respiration): 133 ± 20 % Control
- both states 3 and 4 respiration with α-ketoglutarate [13]: inhibited
- Oxidative Phosphorylation α Ketoglutarate State 3 ([13]; ADP stimulated respiration): 42 ± 9 % Control
- Oxidative Phosphorylation α Ketoglutarate State 4 ([13]; basal respiration): 85 ± 21 % Control
